From PubChem BioAssay (NCI)
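Protocol summary: plate cells (96-well), add compound at 5 concentrations, incubate 48 h, interpolate endpoints linearly. At the GI50, growth is halved. At the TGI there is no net growth.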

Tests used:
Test in all cases: NCI tumour cell line growth inhibition, 48 h; in the data active means GI50 below about 0.43 µM; inactive means the rest
SR leukemia = tested on: SR leukemia
SK-MEL-28 melanoma = tested on: SK-MEL-28 melanoma
HL-60(TB) leukemia = tested on: HL-60(TB) leukemia
MOLT-4 leukemia = tested on: MOLT-4 leukemia
MDA-MB-231 breast = tested on: MDA-MB-231 breast
RPMI-8226 leukemia = tested on: RPMI-8226 leukemia
PC-3 prostate = tested on: PC-3 prostate
ACHN renal = tested on: ACHN renal
SK-MEL-2 melanoma = tested on: SK-MEL-2 melanoma
RXF 393 renal = tested on: RXF 393 renal
SN12C renal = tested on: SN12C renal
MCF7 breast = tested on: MCF7 breast
A549 NSCLC = tested on: A549 NSCLC
SK-MEL-5 melanoma = tested on: SK-MEL-5 melanoma
NCI-H460 lung = tested on: NCI-H460 lung
786-0 renal = tested on: 786-0 renal
HCT-15 colon = tested on: HCT-15 colon
NCI/ADR-RES ovarian = tested on: NCI/ADR-RES ovarian
OVCAR-8 ovarian = tested on: OVCAR-8 ovarian
NCI-H226 lung = tested on: NCI-H226 lung
OVCAR-4 ovarian = tested on: OVCAR-4 ovarian
EKVX NSCLC = tested on: EKVX NSCLC
SF-295 CNS = tested on: SF-295 CNS
M14 melanoma = tested on: M14 melanoma
MDA-MB-435 = tested on: MDA-MB-435
UACC-62 melanoma = tested on: UACC-62 melanoma
HCT-116 colon = tested on: HCT-116 colon
MALME-3M melanoma = tested on: MALME-3M melanoma
HOP-92 NSCLC = tested on: HOP-92 NSCLC
DU-145 prostate = tested on: DU-145 prostate
HT29 colon = tested on: HT29 colon
CCRF-CEM leukemia = tested on: CCRF-CEM leukemia
SF-268 CNS = tested on: SF-268 CNS
NCI-H23 lung = tested on: NCI-H23 lung
HCC-2998 colon = tested on: HCC-2998 colon
OVCAR-3 ovarian = tested on: OVCAR-3 ovarian
T-47D breast = tested on: T-47D breast
CAKI-1 renal = tested on: CAKI-1 renal
TK-10 renal = tested on: TK-10 renal
A498 renal = tested on: A498 renal
K-562 leukemia = tested on: K-562 leukemia
SNB-19 CNS = tested on: SNB-19 CNS
OVCAR-5 ovarian = tested on: OVCAR-5 ovarian
UO-31 renal = tested on: UO-31 renal
SF-539 CNS = tested on: SF-539 CNS
NCI-H522 lung = tested on: NCI-H522 lung
KM12 colon = tested on: KM12 colon
LOX IMVI melanoma = tested on: LOX IMVI melanoma
U251 CNS = tested on: U251 CNS
SW-620 colon = tested on: SW-620 colon
SNB-75 CNS = tested on: SNB-75 CNS
COLO 205 colon = tested on: COLO 205 colon
HOP-62 NSCLC = tested on: HOP-62 NSCLC
IGROV1 ovarian = tested on: IGROV1 ovarian
BT-549 breast = tested on: BT-549 breast
HS 578T breast = tested on: HS 578T breast
SK-OV-3 ovarian = tested on: SK-OV-3 ovarian

N#C/C(=C\c1ccc(F)cc1)n1nc2cccc(F)c2n1
4.62 µM: TGI (MDA-MB-435)
8.09 µM: TGI (SNB-75 CNS)
27 µM: TGI (RXF 393 renal)
9.76 µM: TGI (LOX IMVI melanoma)
11.1 µM: TGI (SF-539 CNS)
7.25 µM: TGI (A498 renal)
> 100 µM: TGI (SR leukemia) | TGI (SK-MEL-28 melanoma) | TGI (MOLT-4 leukemia) | TGI (MDA-MB-231 breast) | TGI (PC-3 prostate) | TGI (ACHN renal) | TGI (SK-MEL-2 melanoma) | TGI (SN12C renal) | TGI (MCF7 breast) | TGI (A549 NSCLC) | TGI (SK-MEL-5 melanoma) | TGI (786-0 renal) | TGI (HCT-15 colon) | TGI (OVCAR-8 ovarian) | TGI (NCI-H226 lung) | TGI (OVCAR-4 ovarian) | TGI (EKVX NSCLC) | TGI (SF-295 CNS) | TGI (M14 melanoma) | TGI (UACC-62 melanoma) | TGI (HCT-116 colon) | TGI (MALME-3M melanoma) | TGI (DU-145 prostate) | TGI (HT29 colon) | TGI (CCRF-CEM leukemia) | TGI (SF-268 CNS) | TGI (NCI-H23 lung) | TGI (HCC-2998 colon) | TGI (OVCAR-3 ovarian) | TGI (T-47D breast) | TGI (CAKI-1 renal) | TGI (TK-10 renal) | TGI (K-562 leukemia) | TGI (SNB-19 CNS) | TGI (OVCAR-5 ovarian) | TGI (UO-31 renal) | TGI (NCI-H522 lung) | TGI (KM12 colon) | TGI (U251 CNS) | TGI (SW-620 colon) | TGI (COLO 205 colon) | TGI (HOP-62 NSCLC) | TGI (IGROV1 ovarian) | TGI (BT-549 breast)
87.1 µM: TGI (RPMI-8226 leukemia)
14.8 µM: TGI (NCI/ADR-RES ovarian)
7.68 µM: TGI (HL-60(TB) leukemia)
inactive: GI50 (SR leukemia) 2.31 µM | GI50 (SK-MEL-28 melanoma) 5.8 µM | GI50 (HL-60(TB) leukemia) 2.69 µM | GI50 (MOLT-4 leukemia) 3.09 µM | GI50 (MDA-MB-231 breast) 5.55 µM | GI50 (RPMI-8226 leukemia) 3.09 µM | GI50 (PC-3 prostate) 4.68 µM | GI50 (ACHN renal) 5.41 µM | GI50 (SK-MEL-2 melanoma) 5.26 µM | GI50 (RXF 393 renal) 2.72 µM | GI50 (SN12C renal) 3.84 µM | GI50 (MCF7 breast) 2.24 µM | GI50 (A549 NSCLC) 4.01 µM | GI50 (SK-MEL-5 melanoma) 3.76 µM | GI50 (NCI-H460 lung) 3.01 µM | GI50 (786-0 renal) 7.13 µM | GI50 (HCT-15 colon) 2.58 µM | GI50 (NCI/ADR-RES ovarian) 2.99 µM | GI50 (OVCAR-8 ovarian) 5.06 µM | GI50 (NCI-H226 lung) 4.64 µM | GI50 (OVCAR-4 ovarian) 4.19 µM | GI50 (EKVX NSCLC) 3.8 µM | GI50 (SF-295 CNS) 3.53 µM | GI50 (M14 melanoma) 3.27 µM | GI50 (MDA-MB-435) 1.89 µM | GI50 (UACC-62 melanoma) 3.3 µM | GI50 (HCT-116 colon) 3.57 µM | GI50 (MALME-3M melanoma) 5.03 µM | GI50 (HOP-92 NSCLC) 2.1 µM | GI50 (DU-145 prostate) 3.2 µM | GI50 (HT29 colon) 3.89 µM | GI50 (CCRF-CEM leukemia) 3.24 µM | GI50 (SF-268 CNS) 4.99 µM | GI50 (NCI-H23 lung) 3.9 µM | GI50 (HCC-2998 colon) 7.14 µM | GI50 (OVCAR-3 ovarian) 2.75 µM | GI50 (T-47D breast) 4.2 µM | GI50 (CAKI-1 renal) 5.17 µM | GI50 (TK-10 renal) 7.01 µM | GI50 (A498 renal) 2.04 µM | GI50 (K-562 leukemia) 3.25 µM | GI50 (SNB-19 CNS) 6.67 µM | GI50 (OVCAR-5 ovarian) 5.04 µM | GI50 (UO-31 renal) 3.65 µM | GI50 (SF-539 CNS) 3.14 µM | GI50 (NCI-H522 lung) 3.24 µM | GI50 (KM12 colon) 2.83 µM | GI50 (LOX IMVI melanoma) 2.92 µM | GI50 (U251 CNS) 3.52 µM | GI50 (SW-620 colon) 3.45 µM | GI50 (SNB-75 CNS) 2.37 µM | GI50 (COLO 205 colon) 4.16 µM | GI50 (HOP-62 NSCLC) 3.54 µM | GI50 (IGROV1 ovarian) 5.01 µM | GI50 (BT-549 breast) 4.72 µM
9.15 µM: TGI (HOP-92 NSCLC)
12.9 µM: TGI (NCI-H460 lung)

C/C1=C/C[C@@H](/C(C)=C/c2csc(C)n2)OC(=O)C[C@H](O)C(C)(C)C(=O)[C@H](C)[C@@H](O)[C@@H](C)CCC1
0.335 µM: TGI (HT29 colon)
0.361 µM: TGI (T-47D breast)
0.472 µM: TGI (OVCAR-4 ovarian)
0.394 µM: TGI (MOLT-4 leukemia)
0.125 µM: TGI (HCC-2998 colon)
0.24 µM: TGI (SW-620 colon)
0.4 µM: TGI (TK-10 renal)
0.209 µM: TGI (SN12C renal)
0.217 µM: TGI (RPMI-8226 leukemia)
0.237 µM: TGI (HCT-15 colon)
0.323 µM: TGI (ACHN renal)
0.169 µM: TGI (NCI-H23 lung) | TGI (U251 CNS)
0.214 µM: TGI (NCI-H226 lung) | TGI (SK-OV-3 ovarian)
0.188 µM: TGI (SK-MEL-2 melanoma)
0.23 µM: TGI (NCI-H460 lung) | TGI (M14 melanoma)
0.189 µM: TGI (SNB-19 CNS) | TGI (OVCAR-5 ovarian)
0.302 µM: TGI (HOP-92 NSCLC)
0.247 µM: TGI (UACC-62 melanoma)
0.000238 µM: TGI (NCI/ADR-RES ovarian)
0.228 µM: TGI (786-0 renal)
0.167 µM: TGI (SK-MEL-5 melanoma)
0.143 µM: TGI (LOX IMVI melanoma)
0.231 µM: TGI (MCF7 breast)
0.295 µM: TGI (OVCAR-8 ovarian)
0.198 µM: TGI (BT-549 breast)
0.215 µM: TGI (EKVX NSCLC) | TGI (IGROV1 ovarian)
0.305 µM: TGI (CAKI-1 renal)
0.173 µM: TGI (HCT-116 colon) | TGI (OVCAR-3 ovarian)
0.894 µM: TGI (CCRF-CEM leukemia)
0.181 µM: TGI (A549 NSCLC) | TGI (UO-31 renal)
0.196 µM: TGI (KM12 colon)
< 0.0001 µM: TGI (RXF 393 renal) | TGI (SF-295 CNS) | TGI (DU-145 prostate) | TGI (HS 578T breast) | TGI (SF-539 CNS) | TGI (NCI-H522 lung)
0.193 µM: TGI (PC-3 prostate)
0.259 µM: TGI (HOP-62 NSCLC)
